From ChEMBL document CHEMBL4000207 (Bioorg Med Chem Lett, 2017)
In brackets after ≈: the same amount, converted by molar mass.

Key:
[1] = Lipophilicity, log D of the compound; assay type: physicochemical; settings: octanol/water
[2] = Solubility of the compound; assay type: physicochemical
[3] = Intrinsic clearance in rat hepatocytes assessed per million cells; assay type: ADME, cell-based, Hepatocyte; settings: read-out: CLH
in vitro [4] = settings: human, liver microsomes
in vitro [5] = settings: human, Caco-2
[6] = Oral bioavailability in rat; assay type: ADME, organism-based; settings: in vivo
[7] = Clearance in iv dosed rat; assay type: ADME, organism-based; settings: in vivo
[8] = Half life in iv dosed rat; assay type: ADME, organism-based; settings: in vivo
[9] = Volume of distribution at steady state in iv dosed rat; assay type: ADME, organism-based; settings: in vivo, read-out: Vdss

SMILES | logD [1] | solubility [2] [µM] | hepatocyte CLint [3] [µL/min/1e6 cells] | microsomal CLint (in vitro [4]) [µL/min/mg] | Papp A→B (in vitro [5]) [×10⁻⁶ cm/s] | also measured
Cn1nc(-c2cnc(N)c(-n3nnc4ccccc43)n2)nc1C1(c2ccccc2)CC1 | 4.3 |  |  |  |  | 
Cn1nc(-c2cnc(N)c(-n3ccc(C(N)=O)n3)n2)nc1C1(c2ccccc2)CC1 | 2.8 |  |  |  |  | 
CN(C)S(=O)(=O)n1cc(-c2nc(-c3nc(C4(c5ccccc5)CC4)n(C)n3)cnc2N)cn1 | 2.8 | 11 (≈ 5.12 µg/mL) | 157 | 191 | 19 | 
Cn1nc(-c2cnc(N)cn2)nc1C1(c2ccccc2)CC1 | 1.8 |  |  |  |  | 
Cc1n[nH]c(C)c1-c1nc(-c2nc(C3(c4ccccc4)CC3)n(C)n2)cnc1N | 2.3 |  |  |  |  | 
Cn1nc(-c2cnc(N)c(-c3nnc(C(C)(C)C)o3)n2)nc1C1(c2ccccc2)CC1 | 3.6 | 3 (≈ 1.25 µg/mL) | 12 | 20 | 24 | 
Cn1nc(-c2cnc(N)c(C#N)n2)nc1C1(c2ccccc2)CC1 | 2.2 |  |  |  |  | 
Cn1nc(-c2cnc(N)c(-n3cc(C(N)=O)cn3)n2)nc1C1(c2ccccc2)CC1 | 2.8 |  |  |  |  | 

Now from value to compound, other results behind:

logD [1] | solubility [2] [µM] | hepatocyte CLint [3] [µL/min/1e6 cells] | microsomal CLint (in vitro [4]) [µL/min/mg] | Papp A→B (in vitro [5]) [×10⁻⁶ cm/s] | SMILES | also measured
2.2 |  |  |  |  | Cn1nc(-c2cnc(N)c(-c3cnn(C(N)=O)c3)n2)nc1C1(c2ccccc2)CC1 | 
3 |  |  |  |  | Cn1nc(-c2cnc(N)c(-c3cc[nH]n3)n2)nc1C1(c2ccccc2)CC1 | 
2.5 |  |  |  |  | Cn1nc(-c2cnc(N)c(-c3ccc(F)nc3)n2)nc1C1(c2ccccc2)CC1 | 
2 |  |  |  |  | Cn1nc(-c2cnc(N)c(-c3ccc(N)nc3)n2)nc1C1(c2ccccc2)CC1 | 
2.1 | 37 (≈ 13.3 µg/mL) | 5 | < 3 | 6.6 | Cn1nc(-c2cnc(N)c(-c3cn[nH]c3)n2)nc1C1(c2ccccc2)CC1 | 
2.2 | 177 (≈ 72.8 µg/mL) | 2 | < 3 | 2 | Cn1nc(-c2cnc(N)c(-c3ccc(C(N)=O)cc3)n2)nc1C1(c2ccccc2)CC1 | 
2.2 | 32 (≈ 13.7 µg/mL) | < 1 | < 3 | 13 | Cn1nc(-c2cnc(N)c(-c3ccc(C(N)=O)c(F)c3)n2)nc1C1(c2ccccc2)CC1 | bioavailability [6]: 41%; clearance [7]: 12 mL/min/kg; half-life [8]: 3.4 h; Vd [9]: 2.8 L/kg
